Measured values taken from patent US7671085B2, “Non-steroidal farnesoid X receptor modulators and methods for the use thereof” (The Salk Institute for Biological Studies, priority 2002, dated 2010).

Experiments:
[1] = tested on: IBABP mRNA in HT29-FXRFL cells; experiment: Northern blot of IBABP mRNA in HT29 stable cell lines; format: cell-based, Human
Description: HepG2 or HT29-derived cell lines were typically cultured in medium containing superstripped FBS for 24 hr before the addition of a ligand or DMSO (vehicle) for an additional 24-48 hr. Total RNA was isolated using TRIzol reagent and was resolved (10 μg/lane) on a 1% agarose, 2.2 M formaldehyde gel, transferred to a nylon membrane (Hybond N^+; Amersham Biosciences, Inc.), and cross-linked to the membrane with UV light.
cDNA probes were radiolabeled with [α-^32P]dCTP using the highprime labeling kit (Amersham Biosciences, Inc.). Membranes were hybridized using the QuikHyb hybridization solution (Stratagene, La Jolla, Calif.) according to the manufacturer's protocol. Blots were normalized for variations of RNA loading by hybridization to a control probe, either, 18 S ribosomal cDNA, or the ribosomal protein 36B4. The RNA levels were quantitated using a PhosphorImager (ImageQuant software; Molecular Dynamics, Inc., Sunnyvale, Calif.) in addition to being exposed to X-ray film.
Human colon cells HT29 (FXR null until differentiated) were infected with retroviral vectors that expressed either FXR constructs and the puromycin-resistant gene or the puromycin-resistant gene alone. Puromycin resistant cells were isolated and pooled cell populations were propagated that harbored either the vector alone (HT29-BABE), overexpressed FXR full length (HT29-FXRFL), a non-functional FXR truncated at the AF2 region (HT29-FXR-AF2), or a constitutively active FXR that has the VP16 activation domain fused N-terminal of the protein (HT29-VP16-FXR). Confirmation of the successful establishment of the different stable cell lines was established via northern blot analysis of FXR message levels in the cells.
These observations verify the usefulness of this colon cell model system for studying the induction of FXR target genes.
The ability of the novel compounds identified herein to induce IBABP gene expression in this cell system was also examined. Total RNA from HT29 stable cells treated overnight with fexaramine, fexarine and fexarene was probed for IBABP gene expression.

[2] = molecular target: T1, FXR (Homo sapiens, UniProt Q96RI1); experiment: cell-based FXR transcription assay, FXR responsive promoter linked to luciferase reporter; conditions: for RE^a: footnote a not given; for FXR activation, in words: cell-based reporter assay, SAR discussion
T1 construct: using a full length FXR on a natural response element; expressed in transfected cells
T1 sequence (Q96RI1 1-486): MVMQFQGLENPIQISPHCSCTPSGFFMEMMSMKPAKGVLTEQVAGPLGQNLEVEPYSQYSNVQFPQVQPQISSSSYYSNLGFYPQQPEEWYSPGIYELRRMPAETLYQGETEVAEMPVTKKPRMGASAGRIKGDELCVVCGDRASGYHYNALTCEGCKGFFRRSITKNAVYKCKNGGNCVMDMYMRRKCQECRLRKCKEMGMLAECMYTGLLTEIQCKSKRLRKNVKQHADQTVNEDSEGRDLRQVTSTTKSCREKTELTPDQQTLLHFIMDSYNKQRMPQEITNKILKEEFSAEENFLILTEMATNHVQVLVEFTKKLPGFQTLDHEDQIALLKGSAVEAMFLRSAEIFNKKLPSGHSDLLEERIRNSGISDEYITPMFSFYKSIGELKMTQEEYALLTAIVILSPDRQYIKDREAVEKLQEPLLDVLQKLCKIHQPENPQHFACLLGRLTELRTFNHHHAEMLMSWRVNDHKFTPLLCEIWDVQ
How it was run: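 Cells co-transfected with full-length FXR and a luciferase reporter driven by a natural response element on a minimal promoter. Compound exposure ≈10 μM for 18 h before washing and luciferase read-out, in 384-well format, with CDCA as reference activator. EC50 derived from transcriptional activity.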

Row | Structure (SMILES) | RE^a ([2]; cell-based FXR reporter assay) | FXR activation, in words [2] | also measured
1 | C[C@H](CCC(=O)O)[C@H]1CC[C@H]2[C@@H]3[C@H](O)C[C@@H]4C[C@H](O)CC[C@]4(C)[C@H]3CC[C@]12C [CDCA, chenodeoxycholic acid, reference compound] |  |  | induction of IBABP mRNA, in words ([1]; HT29-BABE or HT29-FXR-AF2 cell lines): No induction of IBABP mRNA levels; induction of IBABP mRNA, in words ([1]; HT29-FXRFL cells): robust concentration dependent induction of IBABP mRNA; concentration for maximal induction of IBABP mRNA ([1]; HT29-FXRFL cells, overnight treatment): 100 µM; induction of IBABP mRNA, in words ([1]; HT29-VP16-FXR cells (constitutive expression)): super-induced
2 | COC(=O)/C=C/c1cccc(N(Cc2ccc(-c3cccc(OC)c3)cc2)C(=O)C(C)C)c1 [Compound 224] | 1.28 | excellent activity | 
3 | COC(=O)/C=C/c1cccc(N(Cc2ccc(-c3cccc(OC)c3)cc2)C(=O)NC(C)C)c1 [Compound 225] | 0.41 |  | 
4 | CCOc1cccc(-c2ccc(CN(C(=O)C3CCCCC3)c3cccc(/C=C/C(=O)OC)c3)cc2)c1 [Compound 226] | 1.37 |  | 
5 | CCOc1cccc(-c2ccc(CN(C(=O)C(C)C)c3cccc(/C=C/C(=O)OC)c3)cc2)c1 [Compound 227] | 1.03 |  | 
6 | CCOc1cccc(-c2ccc(CN(C(=O)NC(C)C)c3cccc(/C=C/C(=O)OC)c3)cc2)c1 [Compound 228] | 0.33 |  | 
7 | COC(=O)/C=C/c1cccc(N(Cc2ccc(-c3ccc(OC)cc3)cc2)C(=O)NC(C)C)c1 [Compound 231] | 1.18 |  | 
8 | COC(=O)/C=C/c1cccc(N(Cc2ccc(-c3cccc(Cl)c3)cc2)C(=O)NC(C)C)c1 [Compound 234] | 0.49 |  | 
9 | COC(=O)/C=C/c1cccc(N(Cc2ccc(-c3ccc(C)cc3)cc2)C(=O)C2CCCCC2)c1 [Compound 235] | 1.38 | excellent activity | 
10 | COC(=O)/C=C/c1cccc(N(Cc2ccc(-c3ccc(C)cc3)cc2)C(=O)NC(C)C)c1 [Compound 237] | 0.80 |  | 
11 | COC(=O)/C=C/c1cccc(N(Cc2ccc(-c3cccc(C)c3)cc2)C(=O)C2CCCCC2)c1 [Compound 238] | 1.43 | excellent activity | 
12 | COC(=O)/C=C/c1cccc(N(Cc2ccc(-c3cccc(C)c3)cc2)C(=O)C(C)C)c1 [Compound 239] | 1.09 |  | 
13 | COC(=O)/C=C/c1cccc(N(Cc2ccc(-c3cc(Cl)ccc3OC)cc2)C(=O)C2CCCCC2)c1 [Compound 241] | 1.16 |  | 
14 | COC(=O)/C=C/c1cccc(N(Cc2ccc(-c3cc(Cl)ccc3OC)cc2)C(=O)C(C)C)c1 [Compound 242] | 0.79 |  | 
15 | COC(=O)/C=C/c1cccc(N(Cc2ccc(-c3cc(Cl)ccc3OC)cc2)C(=O)NC(C)C)c1 [Compound 243] | 0.17 |  | 
16 | COC(=O)/C=C/c1cccc(N(Cc2ccc(-c3ccc4c(c3)OCO4)cc2)C(=O)C(C)C)c1 [Compound 245] | 1.25 | excellent activity | 
17 | COC(=O)/C=C/c1cccc(N(Cc2ccc(-c3ccc4c(c3)OCO4)cc2)C(=O)NC(C)C)c1 [Compound 246] | 1.51 | excellent activity | 
18 | COC(=O)/C=C/c1cccc(N(Cc2ccc(-c3ccc(F)c(Cl)c3)cc2)C(=O)C(C)C)c1 [Compound 248] | 1.64 |  | 
19 | COC(=O)/C=C/c1cccc(N(Cc2ccc(-c3ccc(F)c(Cl)c3)cc2)C(=O)NC(C)C)c1 [Compound 249] | 0.41 |  | 
20 | COC(=O)/C=C/c1cccc(N(Cc2ccc(-c3ccc(OC(F)(F)F)cc3)cc2)C(=O)C(C)C)c1 [Compound 251] | 0.78 |  | 
21 | COC(=O)/C=C/c1cccc(N(Cc2ccc(-c3ccc(OC(F)(F)F)cc3)cc2)C(=O)NC(C)C)c1 [Compound 252] | 0.21 |  | 
22 | COC(=O)/C=C/c1cccc(N(Cc2ccc(-c3cccc(OC(F)(F)F)c3)cc2)C(=O)C(C)C)c1 [Compound 254] | 0.69 |  | 
23 | COC(=O)/C=C/c1cccc(N(Cc2ccc(-c3cccc(OC(F)(F)F)c3)cc2)C(=O)NC(C)C)c1 [Compound 255] | 0.09 |  | 
24 | COC(=O)/C=C/c1cccc(N(Cc2ccc(-c3c(OC)cccc3OC)cc2)C(=O)C2CCCCC2)c1 [Compound 256] | 0.12 | excellent activity | 
25 | COC(=O)/C=C/c1cccc(N(Cc2ccc(-c3ccc(N(C)C)cc3)cc2)C(=O)C(C)C)c1 [Compound 260] | 1.07 | excellent activity | 
26 | COC(=O)/C=C/c1cccc(N(Cc2ccc(-c3ccc(C(C)(C)C)cc3)cc2)C(=O)C2CCCCC2)c1 [Compound 262] | 1.38 |  | 
27 | COC(=O)/C=C/c1cccc(N(Cc2ccc(-c3ccc(C(C)(C)C)cc3)cc2)C(=O)C(C)C)c1 [Compound 263] | 0.59 |  | 

Further lines, with some results ahead:

Row | RE^a ([2]; cell-based FXR reporter assay) | FXR activation, in words [2] | Structure (SMILES) | also measured
28 | 1.51 |  | COC(=O)/C=C/c1cccc(N(Cc2ccc(-c3cccc(OC)c3)cc2)C(=O)C2CCCCC2)c1 [Compound 223] | 
29 | 1.71 | excellent activity | COC(=O)/C=C/c1cccc(N(Cc2ccc(-c3ccc(OC)cc3)cc2)C(=O)C2CCCCC2)c1 [Compound 229] | 
30 | 1.21 | excellent activity | COC(=O)/C=C/c1cccc(N(Cc2ccc(-c3ccc(OC)cc3)cc2)C(=O)C(C)C)c1 [Compound 230] | 
31 | 1.56 | excellent activity | COC(=O)/C=C/c1cccc(N(Cc2ccc(-c3cccc(Cl)c3)cc2)C(=O)C2CCCCC2)c1 [Compound 232] | 
32 | 1.52 | excellent activity | COC(=O)/C=C/c1cccc(N(Cc2ccc(-c3cccc(Cl)c3)cc2)C(=O)C(C)C)c1 [Compound 233] | EC50 ([2]; cell-based FXR reporter assay, determined with Prism 3.0): 77 nM
33 | 1.48 | excellent activity | COC(=O)/C=C/c1cccc(N(Cc2ccc(-c3ccc(C)cc3)cc2)C(=O)C(C)C)c1 [Compound 236] | 
34 | 0.53 |  | COC(=O)/C=C/c1cccc(N(Cc2ccc(-c3cccc(C)c3)cc2)C(=O)NC(C)C)c1 [Compound 240] | 
35 | 1.87 | excellent activity | COC(=O)/C=C/c1cccc(N(Cc2ccc(-c3ccc(F)c(Cl)c3)cc2)C(=O)C2CCCCC2)c1 [Compound 247] | 
36 | 1.04 |  | COC(=O)/C=C/c1cccc(N(Cc2ccc(-c3ccc(OC(F)(F)F)cc3)cc2)C(=O)C2CCCCC2)c1 [Compound 250] | 
37 | 0.84 |  | COC(=O)/C=C/c1cccc(N(Cc2ccc(-c3cccc(OC(F)(F)F)c3)cc2)C(=O)C2CCCCC2)c1 [Compound 253] | 
38 | 0.10 | excellent activity | COC(=O)/C=C/c1cccc(N(Cc2ccc(-c3c(OC)cccc3OC)cc2)C(=O)C(C)C)c1 [Compound 257] | 
39 | 0.10 |  | COC(=O)/C=C/c1cccc(N(Cc2ccc(-c3c(OC)cccc3OC)cc2)C(=O)NC(C)C)c1 [Compound 258] | 
40 | 1.01 |  | COC(=O)/C=C/c1cccc(N(Cc2ccc(-c3ccc(N(C)C)cc3)cc2)C(=O)NC(C)C)c1 [Compound 261] | 
41 | 1.02 |  | COC(=O)/C=C/c1cccc(N(Cc2ccc(-c3ccc(C(C)(C)C)cc3)cc2)C(=O)NC(C)C)c1 [Compound 264] | 
